Literature values, collected in patent publication US10875826B2, “Process for the manufacture of SNAC (salcaprozate sodium)” (Emisphere Technologies, Inc., priority 2006, dated 2020).
Counter-ions that a name gives are not always drawn.

solubility in organic solvents (organic solvents): practically insoluble | solubility in water (water): freely soluble
SMILES: CCCCCN(C)CCC(O)(P(=O)(O)O)P(=O)(O)O [Ibandronate sodium, 3-(N-methyl-N-pentyl)-amino-1-hydroxypropane-1,1-diphosphonic acid, monosodium salt, monohydrate]
